Measurements reported in patent US10080784B2, “Enhanced therapeutic usage of a purine nucleoside phosphorylase or nucleoside hydrolase prodrug” (SOUTHERN RESEARCH INSTITUTE, priority 2011, dated 2018).
≈ marks a conversion by molar mass, not a printed value. Entries after “also recorded” stand apart in the source; their conditions may differ.

Tests used:
[1] = Limit of solubility of F-Ade in water; format: physicochemical; conditions: dissolved in water
[2] = system: parental D54 tumors (no E. coli PNP expression); test: Intratumoral injection into parental D54 tumors (no E. coli PNP expression)
Procedure: Parental and E. coli PNP expressing D54MG (human glioma) tumor cells (2×10^7 cells) are injected subcutaneously into the flanks of nude mice (nu/nu) purchased from Charles River Laboratories (Wilmington, Mass.). D54 tumor cells stably transduced with E. coli PNP are prepared as described previously (Parker et al. Cancer Gene Therapy 2011 June; 18(6):390-8). Tumors are measured with calipers and an estimate of the weight calculated using the equation, (length×width^2)/2=mm^3, and converted to mg assuming unit density. […] Each treatment arm of each group contained at least 6 mice. Mice are monitored daily for weight loss and twice weekly for tumor dimensions. T-C (tumor growth delay) is taken as the difference in days to 2 doublings between drug-treated and saline-treated groups. The time to the evaluation point for each animal (2 doublings) is used as the end point in a Student's t-test, the Mann-Whitney rank sum test, or a life table analysis in order to statistically compare growth data between treatment groups. All procedures are performed in accordance with a protocol approved by the IACUC of Southern Research Institute. F-araAMP is obtained from Schering A.-G. (Berlin, Germany). In this and subsequent examples, F-Ade is obtained from General Intermediates of Canada, Inc. (Edmonton, Alberta, Canada). Treatments are initiated when tumors are 250 to 300 mg (˜1-1.5% of total animal weight).
In FIG. 2A, parental D54 tumor cells are mixed with D54 tumor cells that had been transduced with E. coli PNP to a final proportion in which 10% express the transgene. This 90/10 mixture is injected sc into the flanks of nude mice. Tumors are injected once per day for 3 consecutive days starting on day 14 with 150 μl of saline, 1.5 mg of F-araAMP dissolved in saline, or 3 mg of F-araAMP is dissolved in saline. […] In FIG. 2B, parental D54 tumor cells (no E. coli PNP expression) are injected sc into the flanks of nude mice. Tumors are inoculated once per day for 3 consecutive days starting on day 14 with 150 μl of saline, 3 mg F-araAMP is dissolved in saline, 0.15 mg of F-Ade dissolved in saline, 1.26 mg of F-Ade dissolved in […] DMSO, 0.63 mg of F-Ade dissolved in DMSO, or DMSO.
As noted above, the amount of F-araAMP given intratumorally (in FIG. 2A) is less than the total intraperitoneal dose described in FIG. 1. In order to investigate the impact of higher doses of F-araAMP, the F-araAMP is dissolved in DMSO, and given at concentrations well tolerated IT, but well above the maximally-tolerated dose if administered IP (Hong et al. Cancer Res. 2004; 64: 6610-6615). Three doses of 6 or 24 mg is administered by IT injection to tumors in which 10% of cells expressed E. coli PNP (FIG. 2C). Parental D54 tumor cells or mixtures of D54 tumor cells in which 10% of the cells express E. coli PNP are injected sc into the flanks of nude mice. Tumors are injected once per day for 3 consecutive days starting on day 17 with 150 μl of DMSO, 24 mg F-araAMP in DMSO, or 6 mg F-araAMP in DMSO.

[3] = system: D54 tumors in which 10% of the cells express E. coli PNP; test: Intratumoral injection into D54 tumors in which 10% of cells express E. coli PNP; format: in vivo, nude mice
Procedure: Parental and E. coli PNP expressing D54MG (human glioma) tumor cells (2×10^7 cells) are injected subcutaneously into the flanks of nude mice (nu/nu) purchased from Charles River Laboratories (Wilmington, Mass.). […] Tumors are measured with calipers and an estimate of the weight calculated using the equation, (length×width^2)/2=mm^3, and converted to mg assuming unit density. […] Each treatment arm of each group contained at least 6 mice. Mice are monitored daily for weight loss and twice weekly for tumor dimensions. T-C (tumor growth delay) is taken as the difference in days to 2 doublings between drug-treated and saline-treated groups. The time to the evaluation point for each animal (2 doublings) is used as the end point in a Student's t-test, the Mann-Whitney rank sum test, or a life table analysis in order to statistically compare growth data between treatment groups. […] Treatments are initiated when tumors are 250 to 300 mg (˜1-1.5% of total animal weight).

[4] = schedule q1d×3; cited from earlier work
[5] = system: D54 tumors that express E. coli PNP in 5% of the cells; test: Systemic intraperitoneal F-araAMP on D54 tumors expressing E. coli PNP in 5% of cells; format: in vivo, nude mice
Procedure: Intraperitoneal treatment with F-araAMP (250 mg/kg once per day for 3 consecutive days; 167 mg/kg 3 times per day for 3 consecutive days; 100 mg/kg 5 times a day for 3 consecutive days; or vehicle control 5 times a day×3 days) began on day 17 when tumors are approximately 250 mg. […] (FIG. 1)

[6] = system: D54 tumors in which 10% of cells express E. coli PNP; test: F-araAMP plus radiation on D54 tumors in which 10% of cells express E. coli PNP; conditions: 3 mg F-araAMP in saline x3, radiation 4 Gy x3, 3 hours after injection
Procedure: Locally advanced solid tumors often become resistant to radiation therapy. As a test of adjuvant E. coli PNP in this setting, F-araAMP injection together with external beam radiation is investigated.
D54 tumor cells in which 10% of cells expressed E. coli PNP are injected sc into the flanks of nude mice. The tumors are treated with radiation, F-araAMP, or F-araAMP plus radiation. In two treatment groups, tumors are injected once per day for 3 consecutive days with 150 μl of either saline or 3 mg F-araAMP dissolved in saline. In two other treatment groups radiation (4 Gy) is administered once per day for 3 consecutive days 3 hours after injection of 150 μl of either saline (filled squares) or 3 mg F-araAMP dissolved in saline (open squares).

D54 tumors = test: Radioactivity in tumors after intratumoral injection of [3H]F-araAMP, parental D54 tumors; format: in vivo, mice
Procedure: Total radioactivity is determined after injection of 3 mg [8-^3H]F-araAMP (10 μCi) into 300 mg D54 flank tumors. [8-^3H]F-araAMP is obtained from Moravek Biochemicals Inc. (Brea, Calif.). Tumors are removed from the mice at 10 minutes or 4 hours after injection and dissolved in 1 ml of Soluene 350 (Packard Instrument, Meriden, Conn.) by incubating at 55° C. for 4 hours. A portion of each extract is mixed with scintillation fluid and radioactivity determined.
In an effort to understand the pharmacodynamics of intratumoral (IT) F-araAMP, the levels of prodrug activation in parental (D54) tumors and tumors in which 10% of cells expressed E. coli PNP are monitored (Table 1). Tumor tissue is collected 10 minutes or 4 hours after IT injection of 3 mg [^3H]-F-araAMP and the amount of radioactivity remaining in the tumor mass determined.
Three mg (8,200 nmoles) of [^3H]F-araAMP (10 μCi/injection) are injected into D54 tumors or D54 tumors in which 10% of the cells express E. coli PNP as described in FIG. 2. Tumors (approximately 300 mg) are removed 10 minutes and 4 hours after injection with F-araAMP and the amount of radioactivity in each tumor determined. There are 4 tumors per group.

E. coli PNP [7] = molecular target: T1, E. coli PNP (Escherichia coli, UniProt P0ABP8); conditions: cited from earlier work
T1 construct: expressed in transfected cells; host or cells: D54MG human glioma cells, either stably transduced by lentivirus or transduced in vivo with adenoviral vector Ad/PNP, grown as xenografts in nude mice; Crude tumor extracts were assayed
T1 sequence (P0ABP8 whole entry): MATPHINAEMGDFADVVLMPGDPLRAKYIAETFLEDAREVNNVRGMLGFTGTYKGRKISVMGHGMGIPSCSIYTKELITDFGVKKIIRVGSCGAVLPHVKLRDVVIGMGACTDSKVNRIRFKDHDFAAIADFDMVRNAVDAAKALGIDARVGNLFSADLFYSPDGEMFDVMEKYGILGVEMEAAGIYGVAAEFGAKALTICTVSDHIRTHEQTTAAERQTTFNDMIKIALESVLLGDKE

E. coli PNP [8] = molecular target: T1, E. coli PNP; test: Measurement of E. coli PNP activity in tumor extracts; format: biochemical; conditions: D54 tumors on day 20 after 2×10^11 VP Ad/PNP IT twice per day x3 days, FIG. 5A experiment
Procedure: The proportion of lentiviral transduced cells in a tumor mass is verified by measuring E. coli PNP activity in representative cancers removed from mice on the first day of drug treatment. Crude extracts are prepared as described previously (Parker et al. Human Gene Therapy 1997; 8: 1637-1644) after tumor excision from the flanks of mice. […] The formation of MeP is monitored using reverse phase HPLC. By convention, one unit of PNP activity is defined as the amount of extract necessary to cleave 1 nmole of MeP-dR per mg protein in a 1 hour period.

Nc1nc(F)nc2nc[nH]c12 [F-Ade, 2-fluoroadenine]
solubility [1]: 1000 µg/mL (≈ 6.53 mM)
Tumor growth, P versus DMSO vehicle group ([2]; 0.63 mg F-Ade in DMSO IT once per day x3, FIG. 2B): 0.011
Antitumor effect ([2]; F-Ade 0.15 ml of 1 mg/ml in water/saline (highest possible solubility) IT): no antitumor effect; also recorded: fails to elicit antitumor activity
Antitumor effect ([2]; F-Ade in DMSO IT (0.15 ml of 8.6 mg/ml; 1.26 mg x3)): modest antitumor effect; also recorded: minimal antitumor activity
Maximally tolerated dose (MTD) ([2]; F-Ade in DMSO, three IT injections): ~1.26 mg
Decrease in body weight ([2]; three IT injections of 1.26 mg F-Ade in DMSO): 10%
Death of mice ([2]; three IT injections of 2.5 mg F-Ade in DMSO): 3 of 6
Death of mice ([2]; three IT injections of 5 mg F-Ade in DMSO): 4 of 6

Nc1nc(F)nc2c1ncn2[C@@H]1O[C@H](COP(=O)(O)O)[C@@H](O)[C@@H]1O [F-araAMP, fludarabine phosphate]
Weight loss ([3]; 3 mg F-araAMP IT per injection, 3 total injections): less than 4%
Tumor growth, P versus vehicle treated group ([3]; 3 mg F-araAMP in saline IT once per day x3 from day 14, FIG. 2A): < 0.001
Tumor growth, P versus vehicle treated group ([3]; 6 mg F-araAMP in DMSO IT once per day x3 from day 17, FIG. 2C): 0.014
Tumor ulcerations ([3]; 6 mg F-araAMP in DMSO IT x3): no ulcerations
Tumor growth, P versus vehicle treated group ([3]; 24 mg F-araAMP in DMSO IT once per day x3 from day 17, FIG. 2C): < 0.001
Tumors that became ulcerated ([3]; 24 mg F-araAMP in DMSO IT x3): Three of the 6
Tumors completely regressed, mice tumor-free until day 70 ([3]; 24 mg F-araAMP in DMSO IT x3, of 6 tumors, 3 sacrificed for ulceration): 3 tumors
Decrease in body weight ([3]; F-araAMP IT at the highest dose (24 mg), recovered rapidly): 7%
Tumor growth, P of 3 mg group versus 1.5 mg group ([3]; F-araAMP in saline IT once per day x3 from day 14, FIG. 2A): 0.458
Maximally tolerated dose [4]: 750 mg/kg
Gross tissue damage in region surrounding the tumor ([5]; IP F-araAMP): no gross tissue damage
Decrease in body weight ([5]; IP F-araAMP, quickly regained after schedule completed): 10 to 20%
Tumor growth, P versus vehicle treated group ([5]; all IP F-araAMP groups (250 mg/kg x3, 167 mg/kg x9, 100 mg/kg x15 over 3 days), from day 17, FIG. 1): < 0.001
Tumor growth, P of radiation plus F-araAMP versus F-araAMP only [6]: 0.004
Tumor growth, P of radiation plus F-araAMP versus radiation only [6]: < 0.001
Radioactivity in tumor, nmoles F-araAMP/gram of tissue (D54 tumors; 10 min after IT injection of 3 mg [3H]F-araAMP): 980 ± 730 nmoles F-araAMP/gram of tissue
Radioactivity in tumor, nmoles F-araAMP/gram of tissue (D54 tumors; 4 hours after IT injection of 3 mg [3H]F-araAMP): 31 ± 6 nmoles F-araAMP/gram of tissue
Effect on tumor growth ([2]; IT F-araAMP, FIGS. 2B, 2D and 3): no effect

Nc1nc(F)nc2c1ncn2[C@H]1C[C@H](O)[C@@H](CO)O1 [F-dAdo, 2-F-2′-deoxyadenosine]
Substrate for E. coli PNP compared with F-araA (E. coli PNP [7]): much better substrate

Ad/PNP
E. coli PNP activity in the tumors (E. coli PNP [8]): 7,500±2,000 units
